Measured values: patent publication EP1132382A1, “3-Oxy-7-sulfamyl-3,4-dihydro-1,2,4-benzothiadazine-1,1-dioxide derivatives having diuretic and/or natriuretic activity” (Farma Invent B.V., priority 2000, dated 2001)

Legend:
[1] = Bioavailability study of epithiazide in healthy volunteers; assay type: in vivo
[2] = Hydrolysis of epithiazide to hydroxyhydrothiazide in aqueous phosphate buffer; assay type: physicochemical; details: 0.067 m phosphate buffer, pH=7, 37°C, 0.067 M aqueous phosphate buffer, read-out: epithiazide cleaved into hydroxyhydrothiazide
Protocol: Figure 1: Hydrolysis of epithiazide to hydroxyhydrothiazide under various temperatures and pH in a 0.067 M phosphate buffer.
Epithiazide was contacted with an aqueous phosphate buffer of 0.067 M at two different temperatures (RT and 37°C), at different pHs, ranging from 5,2 to 13.

[3] = Intravenous administration to dogs: elimination and urine production; assay type: in vivo; details: 0.08-0.4 mg/kg
Protocol: The pharmacotherapeutic activity of the hydroxyhydrothiazides has been evaluated. The natriuretic an/or diuretic activity has been determined by testing on animals and healthy volunteers.
The elimination from the body was monitored for 48 hours. […] The diuretic effect was monitored by measuring the urine production.

[4] = pKa of isolated hydroxyhydrothiazide; assay type: physicochemical; details: isolated and purified product
Protocol: The hydroxyhydrothiazide was synthesised by the hydrolysis of epithiazide. Conversion to hydroxyhydrothiazide was completed in 72 hours at 37 °C in a 0.067 M phosphate buffer.

[5] = after administration of a suitable dose of epithiazide

Row | SMILES | detection in the plasma [1, 5] | detection in the urine [1, 5] | degraded at 10 h [2] | biological half-life (relative to epithiazide) ([1]; compound found after administration of epithiazide) | distribution of the compound throughout the body [3] | diuretic effect (urine production) [3] | half-life compared with conventional thiazide-based diuretics such as epithiazide and hydrochlorothiazide ([3]; elimination monitored for 48 hours) | pKa [4]
1 | NS(=O)(=O)c1cc2c(cc1Cl)NC(CSCC(F)(F)F)NS2(=O)=O (centres unmarked) [epithiazide] | no epithiazide could be detected | detected | > 80% |  |  |  |  | 
2 | NS(=O)(=O)c1cc2c(cc1Cl)NC(O)NS2(=O)=O (centres unmarked) [hydroxyhydrothiazide] |  |  |  | longer biological half-life | rapid distribution | instant diuretic effect | about twice as long | 9.5
